Data as given in US12257283B2 (priority 2019, dated 2025).
Like-named read-outs stand apart in the source and are kept apart here.

How the values were obtained:
[1] = system: cocaine locomotor activation; conditions: literature data, cited from earlier work
cocaine taking = conditions: literature data; cited from earlier work
cocaine reward = conditions: literature data, cited from earlier work
[2] = target: chemokine receptors CCR2/CCR5; format: biochemical; conditions: inhibition of chemokine receptors CCR2/CCR5; read-out: Potency EC50
From the text: Table 1 illustrates the potencies of several peptides of the invention to inhibit chemokine receptors CCR2/CCR5. These receptor-active peptides (Receptides, abbreviated as RAP's) represent a novel, safe and non-addictive pharmacological intervention for substance abuse disorders by normalizing the neurobiology of addiction to suppress drug-seeking behaviors, reduce psychostimulant (cocaine, methamphetamine) activation and locomotion, and inhibit consumption of alcohol, other drugs of abuse and substance abuse in general. They may also treat depression and anxiety as those commonly occur in substance abuse. […] Decades-old treatments (methadone, buprenorphine etc.) require extended use, suffer from high recidivism, are only partly effective and are clearly inadequate. New treatments with no abuse liability, that blunt drug-seeking, dependence, and facilitate recovery and withdrawal are a priority need.

MOR-dependent rats = conditions: 0.5 mg/kg, naloxone 3 mg/kg SC on day 7, quantified for 60 min
Procedure: Opioid tolerance during chronic exposure requires increasing opioid doses to maintain analgesic efficacy. Physical dependence also develops during chronic opioid exposure and, upon discontinuation of opioid intake, presents as a withdrawal syndrome that triggers opioid relapse. We tested the effects of RAP-103 (0.5 mg/kg) on naloxone-precipitated withdrawal signs in MOR-dependent rats. To induce physical dependence we implanted opioid (heroine) containing pellets. On day 7 rats received naloxone (3 mg/kg, SC) with or without added RAP-103 and the withdrawal signs of wet dog shakes and eye blinking were quantified for 60 min.

[3] = system: cocaine induced locomotor behavior; conditions: rats, 0.001, 0.01, 0.03 mg/kg, p.o., 30 min before cocaine 10 mgs/Kg
Procedure: Locomotor activity (ambulation+stereotypy) induced by cocaine and the effect of RAP-103 was assessed using a Digiscan DMicro system. Following a 60-min habituation in activity chambers, rats were pretreated with RAP-103 (0.03, 0.01, 0.001 mgs/Kg) or vehicle 30 min before cocaine (10 mgs/Kg) or vehicle and activity was measured for 120 min. Differences between individual groups were determined with a Bonferroni post-hoc test. Statistical significance was set at p<0.05.

[4] = system: streptozotocin (STZ) induced diabetic rats
Procedure: Rats were fasted overnight and received a single intraperitoneal injection of streptozotocin (60 mg/kg, Sigma-Aldrich) in citrate buffer (pH 4.5) to induce type I diabetes. The induction of diabetes was confirmed 72 h after streptozotocin injection by measurement of blood glucose levels using Contour® blood glucose diagnostic kit (Bayer HealthCare, Canada). Body weight and blood glucose levels were measured before and 3 days after streptozotocin injection, once a week for three weeks after diabetes induction. Only rats having blood glucose concentration consistently higher than 300 mg/dl were used for the present study. […]
(§1) Tactile allodynia Mechanical sensitivity was assessed using calibrated von Frey hairs (7). Animals were placed in Plexiglas boxes on an elevated metal mesh floor and allowed 60 min for habituation before testing. A series of von Frey filaments with logarithmically incrementing stiffness was applied perpendicular to the mid-plantar region of the hind paw. The 50% paw withdrawal threshold was determined using Dixon's up-down method. Withdrawal thresholds of both paws were averaged as one single value per animal. Assessment on the effects of RAP103 on mechanical and cold allodynia was performed between 2-4 hours following the drug administration. […] All data were presented as means±SEM. Statistical analysis was performed by two-way ANOVA followed by Bonferroni post-tests. The criterion for statistical significance was P<0.05.

CCL2, CCL3 = system: CCL2, CCL3
From the text: Because opioids are used in the management of pain conditions that contribute to OUD, we determined the efficacy of a small peptide chemokine receptor antagonist RAP-103 (all-D-TTNYT, SEQ ID #1, Table 1), sometimes called RAP-103 or R103) to reverse opioid receptor analgesic tolerance and block pain as a test of its ability to block-drug seeking behaviors. Painful diabetic neuropathy (PDN) is a common complication of diabetes which adversely affects patients' daily life, often involves opioid use, which creates an addiction risk. […] To test the hypothesis, we first used behavioral and molecular/cellular approaches to explore chronic pain development and inflammatory reaction in Streptozotocin (STZ) induced diabetic rats. […] CCL2 and CCL3 are two chemokines well known in mediating immune cell trafficking and immune response in the context of neuropathic pain.
(§2) Rats were fasted overnight and received a single intraperitoneal injection of streptozotocin (60 mg/kg, Sigma-Aldrich) in citrate buffer (pH 4.5) to induce type I diabetes. The induction of diabetes was confirmed 72 h after streptozotocin injection by measurement of blood glucose levels using Contour® blood glucose diagnostic kit (Bayer HealthCare, Canada). Body weight and blood glucose levels were measured before and 3 days after streptozotocin injection, once a week for three weeks after diabetes induction. Only rats having blood glucose concentration consistently higher than 300 mg/dl were used for the present study.

[5] = system: opioid self-administration; conditions: rats, MOR 0.25 mg/kg/inf
From the text: Rats were surgically prepared to have indwelling catheters prior to self-administration testing. To begin each session, house lights were turned on and two retractable levers extended into the chamber. […] A 20-s timeout period will follow each infusion to limit possibility of overdose. […] The dependent variable measured will be the number of infusions earned by the end of the session and defined as the breakpoint. Total cumulative responses made by the rat on the active lever during each session will also be recorded. Once rats reach criteria for stable PR responding, which is defined as 3 consecutive days of responding without upward or downward variance (<20% change from mean number of reinforcers earned for 3 consecutive days), R103 (0.02, 0.1, and 0.5 mg/kg) will be administered 15 min before daily SA sessions to assess effects on breaking point and to obtain dose-effect data for R103. A repeated-measures 2-way ANOVA (R103 treatment, sex) between-subjects design followed by a Bonferroni test was used.

[6] = system: STZ induced diabetic rats; conditions: oral administration
Procedure: as §2
The treatment lasted for 8 days Note, n=5 for H2O and n=7 for RAP-103/each dose.
as §1, with “Statistical analysis was performed by two-way ANOVA followed by Bonferroni post-tests. The criterion for statistical significance was P<0.05.” left out

[7] = STZ diabetic rats, oral administration for 7 days

c1cc(CN2CCCNCCNCCCNCC2)ccc1CN1CCCNCCNCCCNCC1 [AMD3100, Plerixafor]
locomotor activation produced by an acute cocaine injection ([1]; 5, 10 mg/kg pretreatment): reduced locomotor activation
locomotor activation produced by cocaine [1]: inhibits
cocaine taking in rat self-administration assays (cocaine taking): inhibits
cocaine reward / conditioned place preference (CPP) (cocaine reward): inhibits cocaine reward
cocaine reward / conditioned place preference (CPP) (cocaine reward; listed as AMD 3100): inhibits conditioned place preference (CPP)

COc1ccc(C2(O)CCC(N3CC[C@@H](NC(=O)CNC(=O)c4cccc(C(F)(F)F)c4)C3)CC2)cn1 (some centres unmarked) [INCB 3284]
cocaine reward / conditioned place preference (CPP) (cocaine reward): prevented psychostimulant-induced CPP

Maraviroc
locomotor activation produced by cocaine [1]: reduces
cocaine reward / conditioned place preference (CPP) (cocaine reward): reduces rewarding

SSTYR [SEQ ID No.: 2]
EC50 [2]: 1 pM

STNYT [SEQ ID No.: 3]
EC50 [2]: 3 pM

TTNYT [SEQ ID No.: 1, all-D-TTNYT]
naloxone precipitated withdrawal signs (wet dog shakes and eye blink) (MOR-dependent rats; listed as RAP103): significantly inhibited naloxone precipitated withdrawal signs
naloxone precipitated withdrawal signs (wet dog shakes and eye blink) (MOR-dependent rats; listed as RAP-103): blocks naloxone-precipitated withdrawal signs
cocaine induced locomotor behavior (locomotor activity counts) ([3]; listed as RAP103): inhibited psychostimulant cocaine induced locomotor behavior
cocaine induced locomotor behavior (locomotor activity counts) ([3]; listed as RAP-103): blocks the locomotor inducing effects of cocaine
neuropathic pain [4, 7]: reduced neuropathic pain
mechanical allodynia ([4]; STZ induced diabetic rats, oral administration): reversed mechanical allodynia
established hypersensitivity ([4]; STZ rats, 0.5-0.02 mg/Kg b.w., daily, for 7 days): complete reversal of established hypersensitivity
expression of chemokines and cytokines (CCL2, CCL3; [7]): inhibited expression of chemokines and cytokines
inflammation: CCL2 in the sciatic nerves (CCL2, CCL3; STZ rats, 0.5 mg/kg, for 7 days, p.o., FIG. 3A): significantly inhibited inflammation
inflammation: CCL3 in the sciatic nerves (CCL2, CCL3; STZ rats, 0.5 mg/kg, for 7 days, p.o., FIG. 3B): significantly inhibited inflammation
opioid self-administration by lever press for drug infusions [5]: significantly inhibited opioid self-administration
motivation to work for reinforcer (self-administer an opioid), progressive-ratio ([5]; R103 0.02, 0.1, and 0.5 mg/kg 15 min before sessions): significantly reduced
cold allodynia [6]: reversed cold allodynia
